Test results as given in patent US12473299B2, “Cross-linked nucleoside and nucleotide using same” (Osaka University, priority 2020, dated 2025).
“Also recorded” adds a separate entry of the source. [BANA] = cross-linked (bridged) nucleoside of the invention; l = locked nucleic acid (LNA); d = 2'-deoxy (DNA)

Experiments:
[1] = test system: single-stranded oligo DNA 5′-d(AGCAAAYAACGC)-3′; experiment: Base selectivity (Tm, match/mismatch) with single-stranded oligo DNA; type: binding
Method: (§1) The double-strand forming ability of the oligonucleotides was examined by subjecting the different types of oligonucleotides and the target strands to an annealing treatment to form double strands, and then measuring their Tm values. More specifically, a mixed liquid of each oligonucleotide (final concentration: 4 μM) and a phosphate buffer (10 mM, pH 7.2, 130 μL) containing sodium chloride (final concentration: 100 mM) was bathed in boiling water and then slowly cooled to room temperature. After that, the mixed liquid was cooled to 5° C. under nitrogen stream before starting the measurement. The temperature was raised to 90° C. at a rate of 0.5° C./min while absorbance at 260 nm was plotted at intervals of 0.5° C. The Tm value was calculated using a median method or differentiation (SEQ ID No. 17), and a mean value of three independent measurements was adopted.
(§2) For the above sequences (1) to (5), the double-strand forming ability (binding affinity) was examined in a similar manner using a single-stranded oligo RNA 5′-r([…])-3′ and a single-stranded oligo DNA 5′-d([…])-3′ as target strands.
(§3) For the single-stranded oligo RNA, Y was one of rA (SEQ ID No. 18), rU (SEQ ID No. 20), rG (SEQ ID No. 21), and rC (SEQ ID No. 22). For the single-stranded oligo DNA, Y was one of dA (SEQ ID No. 19), dT (SEQ ID No. 23), dG (SEQ ID No. 24), and dC (SEQ ID No. 25).
(§4) In the table, ΔTm was calculated by subtracting the Tm value of the match (dA or rA) from the Tm value of the mismatch.

[2] = test system: single-stranded oligo RNA 5′-r(AGCAAAYAACGC)-3′; experiment: Base selectivity (Tm, match/mismatch) with single-stranded oligo RNA; type: binding
Method: as §1, §2, §3, §4

[3] = test system: mice (C57BL/6J, male); experiment: Toxicity reducing effect: serum AST/ALT and death in mice; type: in vivo; conditions: 20 mg/kg intraperitoneally
Method: The test oligonucleotides (20 mg/kg) shown in Table 45 were administered intraperitoneally to six-week-old mice (C57BL/6J, male) (5 mice/group). After 96 hours, blood was collected under inhalation anesthesia (isoflurane), and the mice were exsanguinated. Then, the activities of aspartate transaminase (AST) and alanine transaminase (ALT) in serum were measured using an automated analyzer (FUJI DRI-CHEM 4000V manufactured by FUJIFILM).

[4] = sequences (1) to (5), label = unit at position 6, match
[5] = 5 mice/group, serum after 96 hours, Means ± SD

## COc1ccc(C(OC[C@H]2OC3CCOC([C@@H]3n3cc(C)c(=O)[nH]c3=O)[C@H]2OP(OCCC#N)N(C(C)C)C(C)C)(c2ccccc2)c2ccc(OC)cc2)cc1 (stereo partly shown) [compound 19]
[1]; [4]
  ssDNA: Tm, Y = dA: 42 °C
[1]; sequences (1) to (5), label = unit at position 6, mismatch dT
  ssDNA: Tm, Y = dT: 38 °C
[1]; sequences (1) to (5), mismatch dC
  ssDNA: Tm, Y = dC: 32 °C
[1]; sequences (1) to (5), mismatch dG
  ssDNA: Tm, Y = dG: 31 °C
[1]; ΔTm = Tm(mismatch) − Tm(match), mismatch dC
  ssDNA: ΔTm, Y = dC: −10 °C
[1]; ΔTm = Tm(mismatch) − Tm(match), mismatch dG
  ssDNA: ΔTm, Y = dG: −11 °C
[1]; ΔTm = Tm(mismatch) − Tm(match), mismatch dT
  ssDNA: ΔTm, Y = dT: −4 °C
[2]; introduced into the oligonucleotides, compared with native DNA (dT) (SEQ ID No. 1)
  base pairing with G: suppressed base pairing with G
[2]; [4]
  ssRNA: Tm, Y = rA: 48 °C
[2]; sequences (1) to (5), mismatch rC
  ssRNA: Tm, Y = rC: 34 °C
[2]; sequences (1) to (5), mismatch rG
  ssRNA: Tm, Y = rG: 39 °C
[2]; sequences (1) to (5), mismatch rU
  ssRNA: Tm, Y = rU: 40 °C
[2]; ΔTm = Tm(mismatch) − Tm(match), mismatch rC
  ssRNA: ΔTm, Y = rC: −14 °C
[2]; ΔTm = Tm(mismatch) − Tm(match), mismatch rG
  ssRNA: ΔTm, Y = rG: −9 °C
[2]; ΔTm = Tm(mismatch) − Tm(match), mismatch rU
  ssRNA: ΔTm, Y = rU: −8 °C

## 5′-d(^LG^T^T^a^t^g^c^c^a^c^c^^LC^T^^LA)-3′ (antisense GTTATGCCACCCTA; sugars from the 5' end l[BANA][BANA]ddddddddl[BANA]l, all phosphorothioate, methylation of C not given here) [(28), T: BANA-T3]
[3]; [5]
  ALT: 36.8 ± 9.5 IU/L
  AST: 223.2 ± 102.6 IU/L
[3]; after 96 hours, versus saline
  increase in ALT and AST: almost no increase in ALT and AST

## 5′-d(^LG^^LT^^LT^t^g^c^c^a^c^c^^LC^^LT^^LA)-3′ (antisense GTTATGCCACCCTA; sugars from the 5' end l3 d8 l3, all phosphorothioate, methylation of C not given here) [(29), reference compound]
[3]; 5 mice/group, 96 hours
  Remarks (death of mice): all of the five mice died; also recorded: All 5 died
